Reference: patent US12479847B2 (DANA-FARBER CANCER INSTITUTE, INC., priority 2019, dated 2025)

Tests used:
[1] = target: human LRRK2 kinase (Homo sapiens, UniProt Q5S007); details: LRRK2, ADP-Glo, ATP 10 μM, 60 minutes at 25° C.
[2] = target: T1, wild-type LRKK2 (Mus musculus, UniProt Q5S006); assay: LRRK2 immunoblot, phosphorylation of Ser935, NIH-3T3 cell lysates; type: cell-based; details: FIG. 1
T1 construct: endogenous in cells; host or cells: NIH-3T3
Description: Cell lysates were extracted from the NIH-3T3 cell pellet using lysis buffer (40 mM Tris-HCl pH 8.0, 120 mM NaCl, 0.10% Nonidet™-P40) supplemented with protease inhibitors. Proteins in whole-cell lysates were separated by SDS-PAGE and transferred to an Amersham™ nitrocellulose membrane (Amersham, UK). Nitrocellulose membranes were blocked with 5% skim milk in phosphate-buffered saline containing Tween 20 and incubated with primary antibodies overnight at 4° C. The blots were then incubated with the appropriate horseradish peroxidase (HRP)-conjugated secondary antibodies and proteins were visualized by enhanced chemiluminescence, according to the manufacturer's protocol (Amersham™ Western blotting). Secondary antibodies, anti-rabbit IgG-HRP were purchased from Cell Signaling technology. Immunoblot film were scanned on a LAS500 scanner, and images were managed with Adobe Photoshop

T1 sequence (Q5S006 whole entry): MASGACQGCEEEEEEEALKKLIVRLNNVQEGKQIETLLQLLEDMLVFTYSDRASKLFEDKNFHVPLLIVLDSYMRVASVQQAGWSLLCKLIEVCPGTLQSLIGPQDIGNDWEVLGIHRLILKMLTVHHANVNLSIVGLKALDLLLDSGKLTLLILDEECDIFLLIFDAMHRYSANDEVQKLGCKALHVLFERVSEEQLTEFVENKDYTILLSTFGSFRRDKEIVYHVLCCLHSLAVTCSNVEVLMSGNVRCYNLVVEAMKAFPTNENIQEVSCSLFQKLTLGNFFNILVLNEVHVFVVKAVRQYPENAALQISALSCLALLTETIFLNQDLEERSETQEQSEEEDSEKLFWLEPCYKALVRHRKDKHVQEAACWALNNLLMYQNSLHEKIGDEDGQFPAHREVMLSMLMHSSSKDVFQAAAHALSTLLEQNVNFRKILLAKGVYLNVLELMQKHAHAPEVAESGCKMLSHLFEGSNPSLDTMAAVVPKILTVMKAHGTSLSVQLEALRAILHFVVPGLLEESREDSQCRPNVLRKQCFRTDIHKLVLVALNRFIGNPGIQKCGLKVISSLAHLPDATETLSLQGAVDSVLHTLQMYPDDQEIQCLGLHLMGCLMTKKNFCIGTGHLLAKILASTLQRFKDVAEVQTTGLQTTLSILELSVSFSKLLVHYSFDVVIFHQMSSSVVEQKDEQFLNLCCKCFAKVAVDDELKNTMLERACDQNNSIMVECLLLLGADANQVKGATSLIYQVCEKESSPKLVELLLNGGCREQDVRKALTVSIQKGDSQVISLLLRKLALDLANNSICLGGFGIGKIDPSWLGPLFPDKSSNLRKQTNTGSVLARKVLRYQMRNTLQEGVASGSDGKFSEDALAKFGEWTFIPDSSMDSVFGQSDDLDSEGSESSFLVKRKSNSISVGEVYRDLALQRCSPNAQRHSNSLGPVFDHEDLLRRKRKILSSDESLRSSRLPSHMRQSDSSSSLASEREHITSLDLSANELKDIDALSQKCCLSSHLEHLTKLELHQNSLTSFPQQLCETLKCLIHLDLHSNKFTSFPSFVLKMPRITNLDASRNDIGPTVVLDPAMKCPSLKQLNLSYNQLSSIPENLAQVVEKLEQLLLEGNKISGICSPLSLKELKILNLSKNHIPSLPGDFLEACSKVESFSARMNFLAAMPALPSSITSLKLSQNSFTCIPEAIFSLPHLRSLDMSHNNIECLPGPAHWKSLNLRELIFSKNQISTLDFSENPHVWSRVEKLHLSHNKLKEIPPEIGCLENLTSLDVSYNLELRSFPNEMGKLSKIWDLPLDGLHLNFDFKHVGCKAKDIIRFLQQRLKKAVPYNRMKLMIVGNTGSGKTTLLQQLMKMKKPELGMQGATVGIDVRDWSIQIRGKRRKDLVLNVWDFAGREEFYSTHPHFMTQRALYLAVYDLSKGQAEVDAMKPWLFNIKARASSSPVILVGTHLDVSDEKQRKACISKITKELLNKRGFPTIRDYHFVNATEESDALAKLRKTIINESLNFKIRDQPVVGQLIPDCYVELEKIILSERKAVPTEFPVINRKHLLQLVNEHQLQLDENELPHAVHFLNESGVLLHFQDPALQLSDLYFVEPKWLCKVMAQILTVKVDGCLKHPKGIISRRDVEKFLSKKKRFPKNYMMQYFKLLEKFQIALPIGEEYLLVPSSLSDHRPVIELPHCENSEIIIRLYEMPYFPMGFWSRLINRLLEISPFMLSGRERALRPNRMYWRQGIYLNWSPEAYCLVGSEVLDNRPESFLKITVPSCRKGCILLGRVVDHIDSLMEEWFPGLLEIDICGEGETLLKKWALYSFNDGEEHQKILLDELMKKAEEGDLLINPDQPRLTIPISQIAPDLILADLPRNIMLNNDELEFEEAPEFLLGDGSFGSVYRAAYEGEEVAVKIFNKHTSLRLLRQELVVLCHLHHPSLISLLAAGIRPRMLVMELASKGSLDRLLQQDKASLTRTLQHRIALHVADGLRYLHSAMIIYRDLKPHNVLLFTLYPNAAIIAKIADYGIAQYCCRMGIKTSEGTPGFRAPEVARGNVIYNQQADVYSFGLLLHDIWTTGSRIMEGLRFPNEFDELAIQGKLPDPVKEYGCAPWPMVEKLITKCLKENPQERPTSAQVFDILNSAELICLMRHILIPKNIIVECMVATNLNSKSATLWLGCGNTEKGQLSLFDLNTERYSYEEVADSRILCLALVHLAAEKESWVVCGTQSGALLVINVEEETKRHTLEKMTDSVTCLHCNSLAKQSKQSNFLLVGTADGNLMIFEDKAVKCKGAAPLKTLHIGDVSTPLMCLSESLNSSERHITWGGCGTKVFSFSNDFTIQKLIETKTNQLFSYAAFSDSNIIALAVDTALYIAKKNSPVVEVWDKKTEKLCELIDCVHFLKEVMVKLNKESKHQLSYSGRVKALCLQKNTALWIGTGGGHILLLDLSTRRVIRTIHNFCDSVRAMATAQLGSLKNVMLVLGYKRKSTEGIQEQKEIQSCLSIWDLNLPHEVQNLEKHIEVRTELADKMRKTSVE
Sequence of human LRRK2 kinase (Q5S007 whole entry): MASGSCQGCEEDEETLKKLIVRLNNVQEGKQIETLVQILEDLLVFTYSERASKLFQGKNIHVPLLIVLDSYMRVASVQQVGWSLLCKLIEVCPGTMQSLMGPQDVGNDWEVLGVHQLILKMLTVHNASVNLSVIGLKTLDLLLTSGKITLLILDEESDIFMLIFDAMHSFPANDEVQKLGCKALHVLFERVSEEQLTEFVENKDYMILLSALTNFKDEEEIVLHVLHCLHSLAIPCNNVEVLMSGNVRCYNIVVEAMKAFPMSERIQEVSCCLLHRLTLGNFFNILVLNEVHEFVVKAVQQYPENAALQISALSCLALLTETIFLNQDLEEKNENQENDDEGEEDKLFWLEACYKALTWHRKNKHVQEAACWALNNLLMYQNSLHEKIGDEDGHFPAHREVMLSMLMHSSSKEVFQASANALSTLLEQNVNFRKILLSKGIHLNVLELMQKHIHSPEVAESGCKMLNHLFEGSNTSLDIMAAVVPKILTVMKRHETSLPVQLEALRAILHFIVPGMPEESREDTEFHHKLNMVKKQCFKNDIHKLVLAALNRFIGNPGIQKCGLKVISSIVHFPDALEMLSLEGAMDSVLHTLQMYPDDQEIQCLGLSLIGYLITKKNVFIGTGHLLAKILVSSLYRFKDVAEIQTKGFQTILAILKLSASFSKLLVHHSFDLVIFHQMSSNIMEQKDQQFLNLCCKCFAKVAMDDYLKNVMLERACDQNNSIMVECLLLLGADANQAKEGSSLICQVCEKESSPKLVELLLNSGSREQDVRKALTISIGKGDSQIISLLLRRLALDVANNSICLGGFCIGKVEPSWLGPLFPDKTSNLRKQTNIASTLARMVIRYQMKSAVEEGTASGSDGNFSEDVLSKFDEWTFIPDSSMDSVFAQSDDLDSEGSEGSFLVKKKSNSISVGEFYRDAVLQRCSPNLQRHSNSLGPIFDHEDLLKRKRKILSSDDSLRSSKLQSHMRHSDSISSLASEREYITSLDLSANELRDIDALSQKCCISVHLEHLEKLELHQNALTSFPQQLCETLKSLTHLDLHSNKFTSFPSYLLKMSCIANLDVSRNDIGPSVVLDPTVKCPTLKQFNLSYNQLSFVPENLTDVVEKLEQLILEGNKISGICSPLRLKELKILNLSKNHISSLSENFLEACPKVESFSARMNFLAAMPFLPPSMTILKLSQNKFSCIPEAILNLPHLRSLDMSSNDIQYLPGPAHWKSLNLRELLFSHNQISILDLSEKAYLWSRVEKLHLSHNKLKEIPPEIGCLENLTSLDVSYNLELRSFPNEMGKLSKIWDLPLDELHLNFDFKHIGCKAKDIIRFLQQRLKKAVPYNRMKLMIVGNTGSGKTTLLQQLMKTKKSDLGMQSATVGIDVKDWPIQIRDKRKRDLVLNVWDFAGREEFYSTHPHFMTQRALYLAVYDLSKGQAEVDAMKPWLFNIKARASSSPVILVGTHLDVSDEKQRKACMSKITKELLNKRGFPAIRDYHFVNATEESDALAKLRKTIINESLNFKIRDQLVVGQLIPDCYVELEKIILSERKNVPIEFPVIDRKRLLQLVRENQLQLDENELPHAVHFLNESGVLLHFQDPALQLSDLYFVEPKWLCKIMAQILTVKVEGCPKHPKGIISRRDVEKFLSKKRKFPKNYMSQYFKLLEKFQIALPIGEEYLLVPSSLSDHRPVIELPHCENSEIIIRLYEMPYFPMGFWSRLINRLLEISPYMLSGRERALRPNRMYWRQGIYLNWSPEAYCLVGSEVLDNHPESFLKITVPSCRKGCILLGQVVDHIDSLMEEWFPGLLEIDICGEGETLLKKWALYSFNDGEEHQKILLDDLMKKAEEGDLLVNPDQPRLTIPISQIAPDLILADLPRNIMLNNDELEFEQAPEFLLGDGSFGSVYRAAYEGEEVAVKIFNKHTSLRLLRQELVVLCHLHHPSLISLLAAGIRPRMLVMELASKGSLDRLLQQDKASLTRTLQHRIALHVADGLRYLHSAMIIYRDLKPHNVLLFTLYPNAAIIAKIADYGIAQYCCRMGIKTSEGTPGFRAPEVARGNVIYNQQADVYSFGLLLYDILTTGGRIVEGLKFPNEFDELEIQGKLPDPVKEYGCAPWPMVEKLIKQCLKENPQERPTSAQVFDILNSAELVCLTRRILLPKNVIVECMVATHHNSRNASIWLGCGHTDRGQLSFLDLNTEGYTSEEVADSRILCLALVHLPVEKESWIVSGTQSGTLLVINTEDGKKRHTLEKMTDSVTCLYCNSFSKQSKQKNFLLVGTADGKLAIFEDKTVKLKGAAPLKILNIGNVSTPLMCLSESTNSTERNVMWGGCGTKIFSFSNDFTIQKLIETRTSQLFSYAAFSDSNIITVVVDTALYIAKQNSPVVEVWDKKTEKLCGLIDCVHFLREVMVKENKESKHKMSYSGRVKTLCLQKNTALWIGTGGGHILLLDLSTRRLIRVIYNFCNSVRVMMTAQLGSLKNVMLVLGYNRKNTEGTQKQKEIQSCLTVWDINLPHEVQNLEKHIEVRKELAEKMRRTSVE

| SMILES | IC50 [1] [nM] | inhibition of the phosphorylation of Ser935 in wild-type LRKK2 [2] |
| --- | --- | --- |
| COc1cc(C(=O)N2CCC(N3CCN(C)CC3)CC2)ccc1Nc1ncc2c(n1)N(C)c1ccccc1C(=O)N2C [LRRK2-IN-1, reference compound] |  | inhibition of the phosphorylation of Ser935 |
| CCCNc1nc(Nc2ccc(C(=O)N3CCC(N4CCOCC4)CC3)c3c2OCCO3)nc2[nH]cc(Cl)c12 [Compound 2, (8-((5-chloro-4-(propylamino)-7H-pyrrolo[2,3-d]pyrimidin-2-yl)amino)-2,3-dihydrobenzo[b][1,4]dioxin-5-yl)(4-morpholinopiperidin-1-yl)methanone] | < 10 | inhibited the phosphorylation of Ser935 in wild-type LRKK2 with potency similar to known LRRK2 inhibitor LRRK2-IN-1 |
| CNc1nc(Nc2ccc(S(C)(=O)=O)cc2OC)nc2[nH]cc(Cl)c12 [Compound 13, 5-chloro-N2-(2-methoxy-4-(methylsulfonyl)phenyl)-N4-methyl-7H-pyrrolo[2,3-d]pyrimidine-2,4-diamine] | < 10 |  |
| COc1cc(S(=O)(=O)N2CCC(N3CCOCC3)CC2)ccc1Nc1nc(NCC2CCCC2)c2c(Cl)c[nH]c2n1 [Compound 67, 5-chloro-N4-(cyclopentylmethyl)-N2-(2-methoxy-4-((4-morpholinopiperidin-1-yl)sulfonyl)phenyl)-7H-pyrrolo[2,3-d]pyrimidine-2,4-diamine] | 100 to 1000 |  |
| COc1cc(S(=O)(=O)N2CCC(N3CCOCC3)CC2)ccc1Nc1nc(NC(C)C)c2c(Cl)c[nH]c2n1 [Compound 87, 5-chloro-N4-isopropyl-N2-(2-methoxy-4-((4-morpholinopiperidin-1-yl)sulfonyl)phenyl)-7H-pyrrolo[2,3-d]pyrimidine-2,4-diamine] | 100 to 1000 |  |
| COc1cc(S(C)(=O)=O)ccc1Nc1nc(NC2CCC2)c2c(Cl)c[nH]c2n1 [Compound 29, 5-chloro-N4-cyclobutyl-N2-(2-methoxy-4-(methylsulfonyl)phenyl)-7H-pyrrolo[2,3-d]pyrimidine-2,4-diamine] | 10 to 100 |  |
| COc1cc(S(C)(=O)=O)ccc1Nc1nc(N[C@H]2CCOC2)c2c(Cl)c[nH]c2n1 [Compound 94, (S)-5-chloro-N2-(2-methoxy-4-(methylsulfonyl)phenyl)-N4-(tetrahydrofuran-3-yl)-7H-pyrrolo[2,3-d]pyrimidine-2,4-diamine] | < 10 |  |
| COc1cc(S(=O)(=O)N2CCOCC2)ccc1Nc1nc(NC2CCCC2)c2c(Cl)c[nH]c2n1 [Compound 55, 5-chloro-N4-cyclopentyl-N2-(2-methoxy-4-(morpholinosulfonyl)phenyl)-7H-pyrrolo[2,3-d]pyrimidine-2,4-diamine] | 100 to 1000 |  |
| COc1cc(P2(=O)CCN(C3CCOCC3)CC2)ccc1Nc1nc(NC2CCCC2)c2c(Cl)c[nH]c2n1 [Compound 79] | 10 to 100 |  |
| COc1cc(S(C)(=O)=O)ccc1Nc1nc(NCC2CCC2)c2c(Cl)c[nH]c2n1 [Compound 66, 5-chloro-N4-(cyclobutylmethyl)-N2-(2-methoxy-4-(methylsulfonyl)phenyl)-7H-pyrrolo[2,3-d]pyrimidine-2,4-diamine] | 100 to 1000 |  |
| CCNc1nc(Nc2ccc(S(=O)(=O)N3CCOCC3)cc2OC)nc2[nH]cc(Cl)c12 [Compound 6, 5-chloro-N4-ethyl-N2-(2-methoxy-4-(morpholinosulfonyl)phenyl)-7H-pyrrolo[2,3-d]pyrimidine-2,4-diamine] | > 1000 |  |
| O=C(c1ccc(Nc2nc(NC3CCC3)c3c(Cl)c[nH]c3n2)c2c1CCO2)N1CCC(N2CCOCC2)CC1 [Compound 103, (7-((5-chloro-4-(cyclobutylamino)-7H-pyrrolo[2,3-d]pyrimidin-2-yl)amino)-2,3-dihydrobenzofuran-4-yl)(4-morpholinopiperidin-1-yl)methanone] | 10 to 100 |  |
| COc1cc(P2(=O)CCN(C(C)=O)CC2)ccc1Nc1nc(NCC(C)C)c2c(Cl)c[nH]c2n1 [Compound 97, 1-(4-(4-((5-chloro-4-(isobutylamino)-7H-pyrrolo[2,3-d]pyrimidin-2-yl)amino)-3-methoxyphenyl)-4-oxido-1,4-azaphosphinan-1-yl)ethan-1-one] | 10 to 100 |  |

Now from value to compound, other results behind:

| IC50 [1] [nM] | SMILES | inhibition of the phosphorylation of Ser935 in wild-type LRKK2 [2] |
| --- | --- | --- |
| 100 to 1000 | CCCNc1nc(Nc2ccc(S(=O)(=O)N3CCC(N4CCOCC4)CC3)cc2OC)nc2[nH]cc(Cl)c12 [Compound 19, 5-chloro-N2-(2-methoxy-4-((4-morpholinopiperidin-1-yl)sulfonyl)phenyl)-N4-propyl-7H-pyrrolo[2,3-d]pyrimidine-2,4-diamine] | inhibited the phosphorylation of Ser935 in wild-type LRKK2 with potency similar to known LRRK2 inhibitor LRRK2-IN-1 |
| < 10 | COCCNc1nc(Nc2ccc(C(=O)N3CCOCC3)c3c2OCCO3)nc2[nH]cc(Cl)c12 [Compound 9, (8-((5-chloro-4-((2-methoxyethyl)amino)-7H-pyrrolo[2,3-d]pyrimidin-2-yl)amino)-2,3-dihydrobenzo[b][1,4]dioxin-5-yl)(morpholino)methanone] |  |
| 10 to 100 | CC[C@@H](C)Nc1nc(Nc2ccc(S(C)(=O)=O)cc2OC)nc2[nH]cc(Cl)c12 [Compound 49, (R)—N4-(sec-butyl)-5-chloro-N2-(2-methoxy-4-(methylsulfonyl)phenyl)-7H-pyrrolo[2,3-d]pyrimidine-2,4-diamine] |  |
| 100 to 1000 | COc1cc(S(=O)(=O)N2CCC(N3CCOCC3)CC2)ccc1Nc1nc(NC2CCC2)c2c(Cl)c[nH]c2n1 [Compound 28, 5-chloro-N4-cyclobutyl-N2-(2-methoxy-4-((4-morpholinopiperidin-1-yl)sulfonyl)phenyl)-7H-pyrrolo[2,3-d]pyrimidine-2,4-diamine] |  |
| 100 to 1000 | O=C(c1ccc(Nc2nc(NCC3CCCC3)c3c(Cl)c[nH]c3n2)c2c1OCCO2)N1CCOCC1 [Compound 46, (8-((5-chloro-4-((cyclopentylmethyl)amino)-7H-pyrrolo[2,3-d]pyrimidin-2-yl)amino)-2,3-dihydrobenzo[b][1,4]dioxin-5-yl)(morpholino)methanone] |  |
| 10 to 100 | COc1cc(P2(=O)CCN(C3CC3)CC2)ccc1Nc1nc(NC2CCC2)c2c(Cl)c[nH]c2n1 [Compound 104, 4-(4-((5-chloro-4-(cyclobutylamino)-7H-pyrrolo[2,3-d]pyrimidin-2-yl)amino)-3-methoxyphenyl)-1-cyclopropyl-1,4-azaphosphinane 4-oxide] |  |
| < 10 | CS(=O)(=O)CCNc1nc(Nc2ccc(C(=O)N3CCOCC3)c3c2OCCO3)nc2[nH]cc(Cl)c12 [Compound 70, (8-((5-chloro-4-((2-(methylsulfonyl)ethyl)amino)-7H-pyrrolo[2,3-d]pyrimidin-2-yl)amino)-2,3-dihydrobenzo[b][1,4]dioxin-5-yl)(morpholino)methanone] |  |
| < 10 | CCNc1nc(Nc2ccc(C(=O)N3CCC(N4CCOCC4)CC3)c3c2OCCO3)nc2[nH]cc(Cl)c12 [Compound 1, (8-((5-chloro-4-(ethylamino)-7H-pyrrolo[2,3-d]pyrimidin-2-yl)amino)-2,3-dihydrobenzo[b][1,4]dioxin-5-yl)(4-morpholinopiperidin-1-yl)methanone] |  |
| 10 to 100 | COc1cc(S(=O)(=O)N2CCC(N3CCOCC3)CC2)ccc1Nc1nc(NC2CCCC2)c2c(Cl)c[nH]c2n1 [Compound 56, 5-chloro-N4-cyclopentyl-N2-(2-methoxy-4-((4-morpholinopiperidin-1-yl)sulfonyl)phenyl)-7H-pyrrolo[2,3-d]pyrimidine-2,4-diamine] |  |
| < 10 | O=C(c1ccc(Nc2nc(NC3CC3)c3c(Cl)c[nH]c3n2)c2c1OCCO2)N1CCC(N2CCOCC2)CC1 [Compound 3, (8-((5-chloro-4-(cyclopropylamino)-7H-pyrrolo[2,3-d]pyrimidin-2-yl)amino)-2,3-dihydrobenzo[b][1,4]dioxin-5-yl)(4-morpholinopiperidin-1-yl)methanone] |  |
| < 10 | CNc1nc(Nc2ccc(C(=O)N3CCOCC3)c3c2OCCO3)nc2[nH]cc(Cl)c12 [Compound 14, (8-((5-chloro-4-(methylamino)-7H-pyrrolo[2,3-d]pyrimidin-2-yl)amino)-2,3-dihydrobenzo[b][1,4]dioxin-5-yl)(morpholino)methanone] |  |
| 10 to 100 | CC(C)Nc1nc(Nc2ccc(C(=O)N3CCC(N4CCOCC4)CC3)c3c2OCCO3)nc2[nH]cc(Cl)c12 [Compound 88] |  |
| 100 to 1000 | COc1cc(S(C)(=O)=O)ccc1Nc1nc(NC2CCCCC2)c2c(Cl)c[nH]c2n1 [Compound 59, 5-chloro-N4-cyclohexyl-N2-(2-methoxy-4-(methylsulfonyl)phenyl)-7H-pyrrolo[2,3-d]pyrimidine-2,4-diamine] |  |
| 10 to 100 | CCCNc1nc(Nc2ccc(S(C)(=O)=O)cc2OC)nc2[nH]cc(Cl)c12 [Compound 8, 5-chloro-N2-(2-methoxy-4-(methylsulfonyl)phenyl)-N4-propyl-7H-pyrrolo[2,3-d]pyrimidine-2,4-diamine] |  |
